Test results reported in ChEMBL document CHEMBL4270672, “Synthesis and Biological Evaluation of Fused Tricyclic Heterocycle Piperazine (Piperidine) Derivatives As Potential Multireceptor Atypical Antipsychotics” (J Med Chem, 2018).
Calls of active or inactive are those of the source. No cut-off for these calls is given here.

Tests used:
[1] = Half life in Sprague-Dawley rat at 10 mg/kg, po by LC-MS/MS analysis; type: ADME, organism-based; conditions: in vivo
D(2) dopamine receptor [2] = molecular target: T1, D(2) dopamine receptor (Homo sapiens, UniProt P14416); assay: Agonist activity at dopamine D2 receptor long isoform (unknown origin) expressed in HEK293 cells assessed as induction of calcium flux at 10 uM after 60 min by calcium 4-dye based FLIPR assay relative to control; type: functional, cell-based
T1 sequence (P14416 whole entry, canonical isoform): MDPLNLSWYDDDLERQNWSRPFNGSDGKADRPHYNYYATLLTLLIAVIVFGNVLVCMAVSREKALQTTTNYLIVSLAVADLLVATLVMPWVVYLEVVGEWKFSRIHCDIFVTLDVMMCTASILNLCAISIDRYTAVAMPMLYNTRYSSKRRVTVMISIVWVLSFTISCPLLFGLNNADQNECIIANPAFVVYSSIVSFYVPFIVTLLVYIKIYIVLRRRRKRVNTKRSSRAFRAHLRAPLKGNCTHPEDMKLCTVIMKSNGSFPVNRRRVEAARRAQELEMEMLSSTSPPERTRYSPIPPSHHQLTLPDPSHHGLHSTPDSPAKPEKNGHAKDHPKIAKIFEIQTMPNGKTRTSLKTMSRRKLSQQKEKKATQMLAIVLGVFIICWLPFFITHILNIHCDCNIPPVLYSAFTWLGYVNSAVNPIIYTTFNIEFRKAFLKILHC

D(2) dopamine receptor [3] = molecular target: T1, D(2) dopamine receptor; assay: Antagonist activity at dopamine D2 receptor long isoform (unknown origin) expressed in HEK293 cells assessed as inhibition of dopamine-induced calcium flux at 10 uM after 15 mins by calcium 4-dye based FLIPR assay relative to control; type: functional, cell-based
Rattus norvegicus [4] = assay: Antipsychotic activity in po dosed Sprague-Dawley rat assessed as reduction in conditioned avoidance response measured at 90 mins post single dose; type: functional; conditions: 1.5 h
[5] = Therapeutic index, ratio of ED50 for catalepsy in Kunming mouse to ED50 for MK-801-induced hyperactivity in Kunming mouse; type: toxicity, organism-based; conditions: in vivo, read-out: Ratio ED50
Mus musculus [6] = assay: Induction of weight gain in Kunming mouse at 0.6 to 5.4 mg/kg, po administered for 28 days measured every day during compound dosing; type: organism-based; conditions: in vivo, 672 h
Mus musculus [7] = assay: Induction of serum prolactin levels in Kunming mouse at 0.6 to 5.4 mg/kg, po administered for 28 days measured at 180 mins post last dose by EIA; type: organism-based; conditions: in vivo, 3 h
[8] = Cmax in Sprague-Dawley rat at 10 mg/kg, po by LC-MS/MS analysis; type: ADME, organism-based; parameters: dose 10 mg/kg, route oral; conditions: in vivo
[9] = Oral bioavailability in Sprague-Dawley rat at 10 mg/kg by LC-MS/MS analysis; type: ADME, organism-based; conditions: in vivo
Rattus norvegicus [10] = assay: Cognitive enhancing effect in Sprague-Dawley rat assessed as increase in total exploration time for novel objects in retention trial at 0.1 to 0.3 mg/kg, po administered 1 hr prior to acquisition trial measured 24 hrs post acquisition trial for 5 mins by novel object recognition test; type: functional, organism-based
[11] = molecular target: Adrenergic receptor alpha-2 (Rattus norvegicus, UniProt P22086+P19328+P22909); assay: Displacement of [3H]-rauwolscine from adrenergic alpha2 receptor in rat cerebral cotex homogenates after 60 mins by liquid scintillation counting
[12] = Displacement of [3H]-DTG from sigma2 receptor in guinea pig brain membranes after 120 mins by liquid scintillation counting; type: cell membranes, Cavia porcellus, Membrane
[13] = molecular target: Muscarinic acetylcholine receptor M1 (Homo sapiens, UniProt P11229); assay: Displacement of [3H]-QNB from M1 receptor (unknown origin) in cell membrane homogenates after 30 mins by liquid scintillation counting
Muscarinic acetylcholine receptor M1, sequence (P11229 whole entry): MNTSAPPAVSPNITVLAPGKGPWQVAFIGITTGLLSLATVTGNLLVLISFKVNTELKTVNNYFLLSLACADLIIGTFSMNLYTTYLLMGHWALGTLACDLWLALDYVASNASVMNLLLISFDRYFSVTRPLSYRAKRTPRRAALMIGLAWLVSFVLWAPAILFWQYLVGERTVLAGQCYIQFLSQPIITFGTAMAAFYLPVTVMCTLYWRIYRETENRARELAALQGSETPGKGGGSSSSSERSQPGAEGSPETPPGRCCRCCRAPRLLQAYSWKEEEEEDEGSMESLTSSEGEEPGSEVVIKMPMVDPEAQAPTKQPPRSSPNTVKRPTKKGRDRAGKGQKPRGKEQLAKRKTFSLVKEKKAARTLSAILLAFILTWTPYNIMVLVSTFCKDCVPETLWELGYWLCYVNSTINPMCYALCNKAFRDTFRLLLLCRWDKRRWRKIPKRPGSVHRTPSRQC

Glutamate NMDA receptor = assay: Displacement of [3H] glycine from NMDA receptor in rat hippocampal membrane homogenates after 30 mins by liquid scintillation counting; type: cell membranes
D(3) dopamine receptor = D(3) dopamine receptor (Rattus norvegicus, UniProt P19020)
D(3) dopamine receptor, sequence (P19020 whole entry): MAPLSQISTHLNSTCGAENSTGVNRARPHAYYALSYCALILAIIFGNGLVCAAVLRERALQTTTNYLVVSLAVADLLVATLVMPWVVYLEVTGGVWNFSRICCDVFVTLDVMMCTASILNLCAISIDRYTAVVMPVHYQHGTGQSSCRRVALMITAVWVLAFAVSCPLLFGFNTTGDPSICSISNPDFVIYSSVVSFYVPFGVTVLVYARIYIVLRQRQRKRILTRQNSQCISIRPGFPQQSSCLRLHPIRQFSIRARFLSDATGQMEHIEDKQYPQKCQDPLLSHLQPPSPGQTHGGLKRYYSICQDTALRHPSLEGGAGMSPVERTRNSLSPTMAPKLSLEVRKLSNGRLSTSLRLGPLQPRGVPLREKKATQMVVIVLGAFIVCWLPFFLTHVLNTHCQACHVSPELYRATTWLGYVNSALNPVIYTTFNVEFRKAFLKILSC

[14] = molecular target: Voltage-gated inwardly rectifying potassium channel KCNH2 (Homo sapiens, UniProt Q12809)
Voltage-gated inwardly rectifying potassium channel KCNH2, sequence (Q12809 whole entry): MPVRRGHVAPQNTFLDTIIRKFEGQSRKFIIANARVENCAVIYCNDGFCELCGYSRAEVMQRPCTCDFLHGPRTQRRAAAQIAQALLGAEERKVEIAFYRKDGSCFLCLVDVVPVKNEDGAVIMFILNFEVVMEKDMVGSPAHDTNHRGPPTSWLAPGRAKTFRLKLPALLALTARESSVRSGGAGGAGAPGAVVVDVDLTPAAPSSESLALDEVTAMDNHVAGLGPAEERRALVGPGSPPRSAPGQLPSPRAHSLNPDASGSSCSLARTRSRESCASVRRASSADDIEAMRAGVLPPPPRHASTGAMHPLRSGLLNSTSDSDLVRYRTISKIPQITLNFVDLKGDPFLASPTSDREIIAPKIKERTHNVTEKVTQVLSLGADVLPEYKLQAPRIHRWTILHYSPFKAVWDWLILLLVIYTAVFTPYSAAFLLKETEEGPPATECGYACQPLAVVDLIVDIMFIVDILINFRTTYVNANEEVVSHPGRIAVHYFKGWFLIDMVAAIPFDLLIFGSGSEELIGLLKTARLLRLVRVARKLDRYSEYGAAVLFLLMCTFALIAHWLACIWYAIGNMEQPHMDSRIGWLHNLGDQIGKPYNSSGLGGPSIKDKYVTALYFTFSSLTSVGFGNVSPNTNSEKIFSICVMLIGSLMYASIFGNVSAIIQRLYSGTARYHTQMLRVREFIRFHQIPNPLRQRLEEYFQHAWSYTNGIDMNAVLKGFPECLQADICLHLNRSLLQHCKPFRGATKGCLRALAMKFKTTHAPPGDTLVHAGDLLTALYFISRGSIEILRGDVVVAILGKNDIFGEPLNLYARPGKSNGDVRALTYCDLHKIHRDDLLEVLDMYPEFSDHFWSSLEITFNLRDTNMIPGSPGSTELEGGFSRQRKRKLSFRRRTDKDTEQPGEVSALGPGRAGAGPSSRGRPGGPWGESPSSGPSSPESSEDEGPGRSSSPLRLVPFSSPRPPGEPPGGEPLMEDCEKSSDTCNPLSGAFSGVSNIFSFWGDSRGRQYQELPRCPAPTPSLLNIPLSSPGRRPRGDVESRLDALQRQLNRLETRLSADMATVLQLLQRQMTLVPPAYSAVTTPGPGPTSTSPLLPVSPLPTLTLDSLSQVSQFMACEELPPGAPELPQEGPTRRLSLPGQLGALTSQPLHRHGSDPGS
Description: Inhibition of human ERG expressed in HEK293 cells at -50 mV holding potential by patch clamp assay

[15] = molecular target: T2, 5-hydroxytryptamine receptor 6 (Homo sapiens, UniProt P50406)
T2 sequence (P50406 whole entry): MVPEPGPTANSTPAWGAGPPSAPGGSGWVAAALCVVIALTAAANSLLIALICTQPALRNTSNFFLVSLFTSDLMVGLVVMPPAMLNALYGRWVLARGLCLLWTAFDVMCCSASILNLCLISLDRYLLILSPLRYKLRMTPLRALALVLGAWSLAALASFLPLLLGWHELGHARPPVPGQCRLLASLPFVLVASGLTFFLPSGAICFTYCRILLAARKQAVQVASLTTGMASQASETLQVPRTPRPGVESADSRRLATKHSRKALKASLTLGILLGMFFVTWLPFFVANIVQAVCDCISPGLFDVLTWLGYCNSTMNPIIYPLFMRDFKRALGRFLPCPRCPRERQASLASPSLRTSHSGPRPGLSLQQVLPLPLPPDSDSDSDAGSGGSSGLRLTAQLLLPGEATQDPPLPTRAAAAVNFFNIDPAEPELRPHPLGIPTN

[16] = molecular target: T3, Adrenergic receptor alpha-1 (Rattus norvegicus, UniProt P15823+P23944+P43140)
T3 sequence (P15823 whole entry): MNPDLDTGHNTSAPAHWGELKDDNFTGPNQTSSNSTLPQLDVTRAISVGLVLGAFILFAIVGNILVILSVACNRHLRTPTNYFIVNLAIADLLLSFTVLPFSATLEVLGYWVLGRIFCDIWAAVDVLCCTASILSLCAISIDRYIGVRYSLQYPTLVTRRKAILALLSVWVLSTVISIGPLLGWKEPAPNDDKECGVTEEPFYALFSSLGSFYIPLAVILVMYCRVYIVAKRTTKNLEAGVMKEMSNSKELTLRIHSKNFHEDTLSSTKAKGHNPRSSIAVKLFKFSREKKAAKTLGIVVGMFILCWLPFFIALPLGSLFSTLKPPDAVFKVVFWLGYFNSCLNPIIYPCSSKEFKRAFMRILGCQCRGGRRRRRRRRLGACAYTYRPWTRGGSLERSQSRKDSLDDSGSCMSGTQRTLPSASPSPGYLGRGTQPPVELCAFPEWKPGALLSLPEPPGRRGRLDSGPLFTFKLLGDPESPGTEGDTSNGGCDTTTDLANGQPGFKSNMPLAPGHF
T3 sequence (P23944 whole entry): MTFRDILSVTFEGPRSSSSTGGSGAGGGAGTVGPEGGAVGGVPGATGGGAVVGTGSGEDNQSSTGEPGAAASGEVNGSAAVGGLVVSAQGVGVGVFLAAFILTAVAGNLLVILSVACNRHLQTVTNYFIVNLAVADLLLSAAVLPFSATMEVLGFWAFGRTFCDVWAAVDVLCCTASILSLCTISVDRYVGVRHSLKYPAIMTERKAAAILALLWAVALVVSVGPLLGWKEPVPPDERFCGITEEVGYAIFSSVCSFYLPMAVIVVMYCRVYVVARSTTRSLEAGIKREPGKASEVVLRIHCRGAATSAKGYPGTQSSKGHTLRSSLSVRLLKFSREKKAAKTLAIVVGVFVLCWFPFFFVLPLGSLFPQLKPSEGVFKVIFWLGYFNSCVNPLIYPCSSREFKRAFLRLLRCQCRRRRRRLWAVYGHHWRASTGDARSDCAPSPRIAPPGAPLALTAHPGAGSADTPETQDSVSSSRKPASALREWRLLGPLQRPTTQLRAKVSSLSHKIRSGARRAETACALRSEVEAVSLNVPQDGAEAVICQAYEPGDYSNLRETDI
T3 sequence (P43140 whole entry): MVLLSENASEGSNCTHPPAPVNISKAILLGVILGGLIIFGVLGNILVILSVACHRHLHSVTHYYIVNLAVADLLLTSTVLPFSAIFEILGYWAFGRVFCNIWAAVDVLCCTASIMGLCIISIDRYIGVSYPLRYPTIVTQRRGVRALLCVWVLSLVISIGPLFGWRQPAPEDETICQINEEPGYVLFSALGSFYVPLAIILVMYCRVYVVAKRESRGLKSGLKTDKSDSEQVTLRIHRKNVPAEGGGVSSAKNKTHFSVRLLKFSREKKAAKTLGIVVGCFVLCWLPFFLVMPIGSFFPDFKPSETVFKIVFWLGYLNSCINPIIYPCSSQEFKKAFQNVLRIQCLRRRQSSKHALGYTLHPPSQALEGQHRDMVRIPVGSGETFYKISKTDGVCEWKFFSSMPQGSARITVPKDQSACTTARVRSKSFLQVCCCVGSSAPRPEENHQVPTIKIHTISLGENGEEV
Description: Displacement of [3H]-prazosin from alpha-1 adrenergic receptor in rat cerebral cortex homogenates incubated for 60 mins by liquid scintillation counting

[17] = molecular target: T2, 5-hydroxytryptamine receptor 6; assay: biochemical
Mus musculus [18] = species: Mus musculus; assay: animal or person; conditions: Kunming, po
Description: Antipsychotic activity in po dosed Kunming mouse assessed as reduction in MK-801-induced hyperactivity pretreated for 60 mins followed by MK-801 challenge measured for 90 mins

Mus musculus [19] = conditions: Kunming
Description: Antipsychotic activity in po dosed Kunming mouse assessed as reduction in apomorphine-induced climbing pretreated for 30 mins followed by apomorphine injection measured at 10 to 30 mins post dose

## O=C(CCCCN1CCC(c2noc3cc(F)ccc23)CC1)c1cc2c3c(c1)CCN3C(=O)CC2
[1]
  half-life: 2.02 h
D(2) dopamine receptor [2]
  Activity: 9.8%
D(2) dopamine receptor [3]
  inhibition: 93.3%
Rattus norvegicus [4]
  ED50: 1.46 mg/kg
[5]
  selectivity ratio: 302
Mus musculus [6]
  Activity: Non-Toxic
Mus musculus [7]
  Activity: Non-Toxic
[8]
  Cmax: 3730 ng/mL
[9]
  bioavailability: 58.8%
Rattus norvegicus [10]
  Activity: Active
[11]
  Ki: > 1000 nM
[12]
  Ki: > 1000 nM
[13]
  Ki: > 1000 nM
Glutamate NMDA receptor
  Ki: > 1000 nM
D(3) dopamine receptor
  Ki: 1.66 nM
[14]
  IC50: 2910 nM
[15]
  IC50: 178 nM
[16]
  Ki: 431 nM
[17]
  Ki: 5.55 nM
Mus musculus [18]
  ED50: 0.26 mg/kg
Mus musculus [19]
  Activity: Dose-dependent effect
